Experimental data from patent US20170355959A1, “METHODS FOR MOBILISING POPULATIONS OF STEM CELLS” (Imperial Innovations Limited, priority 2014, published 2017).

How the values were obtained:
HSPCs [1] = assay: Mobilization of HSPCs into peripheral blood (CFU-HPC assay); type: in vivo, mice
Description: Mice were administered the β-adrenergic agonists isoproterenol (10 mg/kg i.p.), clenbuterol (5 mg/kg i.p.) and BRL 37344 (10 mg/kg i.p.), the cannabinoid receptor agonists ACEA (10 mg/kg i.p.) and GP1a (5 mg/kg i.p.), or vehicle either on 4 consecutive days or 2 hours prior to the cull. 1 hour after the last injection, mice were administered the CXCR4 antagonist AMD3100 (5 mg/kg i.p.) or vehicle. 1 hour later their blood was collected via cardiac puncture for enumeration of circulating CFU-HPCs and CFU-Fs. Mice were administered murine G-CSF (100 μg/kg i.p.) or vehicle on 4 consecutive days. On day 5, blood was collected via cardiac puncture for enumeration of circulating HSPCs.
Harvested peripheral blood or perfusate was red blood cell-lysed and 1×10^5 cells were added to tissue culture-treated petri dishes containing 1 ml of Methocult™ (M3434; StemCell Technologies) to select for CFU-HPCs. Cultures were incubated at 37° C. and quantified on day 12. Similarly, 1×10^6 bone marrow cells harvested by bone marrow flush of the hind limb femur were plated for CFU-HPCs.

HSPCs [2] = assay: as above; type: in vivo; conditions: mice pre-treated with 0-30 mg/kg BRL37344 for 4 days
CFU-Fs (MSPCs) = assay: Mobilization of MSPCs into peripheral blood (CFU-F assay); type: in vivo, mice
[3] = test system: endocannabinoids and N-acyl ethanolamides; assay: Lipid mediator quantification in bone marrow by UPLC/ESI-MS/MS; type: in vivo, mice
Description: Plasma and bone marrow flush (pool of 3 mice, n=1) were processed in order for the extraction of endocannabinoids and congeners (Astarita and Piomelli, 2009; Kingsley and Marnett, 2009). Samples were analysed on an electrospray (ESI) tandem quadrupole Xevo TQ-S mass spectrometer (MS/MS; Waters) coupled to an Acquity Ultrahigh Pressure Chromatography (UPLC) system, and the concentration of analytes was calculated (TargetLynx). Further details concerning extraction and analysis can be found in the Supplemental Experimental Procedures.
Bone marrow flushed from the femurs of 3 mice were pooled (6 ml in total) per treatment to give an n=1 sample. This volume was required to achieve sufficient concentrations of endocannabinoids and N-acyl ethanolamides for detection by UPLC/ESI-MS/MS. Extraction of lipids was carried out by addition of chloroform:methanol (2:1, v/v) (Astarita and Piomelli, 2009; Kingsley and Mamett, 2009). Specifically, ice cold chloroform:methanol was added to each bone marrow supernatant (ml per pooled bone marrow sample), followed by the internal standards AEA-d8 (20 ng) and 2AG-d8 (40 ng). The resulting suspensions were kept on ice for 30 min with occasional vortexing and centrifuged at 5000 rpm for 8 min, to separate the organic and aqueous phases. The organic layer (bottom) from each sample was then removed into a clean vial. The supernatant was evaporated under a fine stream of nitrogen. Once dried the extract was reconstituted in 1 ml of chloroform and semi-purified by SPE (Guo et al, 2010). Briefly, the silica cartridge was equilibrated with 5×1 ml cholorform, the extract was applied, the cartridge was washed with 2×1 ml chloroform and the endocannabinoids eluted with 5×1 ml chloroform:methanol (2:1 v/v). The remaining residue, reconstituted in 100 μL ethanol was stored at −20° C., for no more than 1 week, awaiting UPLC/ESI-MS/MS analysis.
All analysis was performed on an electrospray (ESI) tandem quadrupole Xevo TQ-S mass spectrometer (Waters) coupled to an Acquity Ultrahigh Pressure Chromatography (UPLC) system. The system was controlled by MassLynx v4.1 Software. TargetLynx was used to construct calibration lines and calculate the concentration of analytes of interest. Optimised ESI-MS/MS conditions were achieved through the use of Intellistart within MassLynx software. Individual standards (100 pg/μl) were introduced into the spectrometer by direct infusion via the Xevo TQ-S integrated syringe pump (flow rate 10 μl/min) combined with UPLC solvent flow (rate 0.2 mL/min). All analytes were monitored on the positive ionisation mode. Capillary voltage was set at 2000V, source temperature at 150° C., desolvation temperature at 400° C. and the cone voltage at 20 V. […]

CFU-Fs (MSCs) = assay: In situ perfusion of mouse hind limb, CFU-Fs in perfusate; type: in vivo, mice; conditions: four day pretreatment, b3 adrenergic agonist in combination with FAAH inhibitor
Description: Mice were administered BRL 37344 (10 mg/kg i.p.) or vehicle on 4 consecutive days. 1 hour after the last injection, the mice were anaesthetized. The femoral vein and artery were exposed and cannulated in situ immediately after the hind limb was isolated by occlusion of the surrounding arteries as previously described (Pitchford et al, 2009; Pitchford et al, 2010). Perfusion buffer was infused via the arterial cannula and removed from the venous cannula using a Minipuls Peristaltic Pump (Anachem). The hind limb was initially infused with AMD3100 (0.1 mM) or vehicle for 10 minutes using an infusion/withdrawal pump (Harvard Instruments) and was further perfused for 50 minutes with perfusion buffer (Pitchford et al, 2010). The perfusate was collected over 60 minutes and then centrifuged and resuspended in DMEM (Gibco) +20% fetal bovine serum for enumeration of CFU-HPCs and CFU-Fs.
Harvested peripheral blood or perfusate was red blood cell-lysed and 1×10^6 cells were added to tissue culture-treated 6-well plates containing 3 ml of Mesencult™ (05502; StemCell Technologies) to select for CFU-Fs. Similarly, 1×10^6 bone marrow cells harvested by bone marrow flush of the hind limb femur were plated for CFU-Fs. Cultures were incubated at 37° C. and media was changed on day 7. Bone marrow-derived CFU-Fs were enumerated on day 13 and blood- and perfusate-derived CFU-Fs were enumerated on day 21. Blood derived-CFU-Fs were further expanded and assessed for mesenchymal lineage markers by flow cytometry and following CD45 depletion (flow cytometry sorting of CD45 negative for mesenchymal trilineage differentiation (Supplemental Experimental Procedures).

[4] = 2 h versus 4 d pre-treatment, then AMD3100
[5] = pre-treated once daily for 4 days, then AMD3100, blood 1 hour later
[6] = 4 days, in combination with FAAH inhibition, versus FAAH inhibition only

With `C[C@H](Cc1ccc(OCC(=O)O)cc1)NC[C@H](O)c1cccc(Cl)c1` [BRL37344] the “pre-treatment time needed for HSPC mobilization” value (HSPCs [1]; [4]) was “required the pre-treatment of mice over 4 days to see this effect”, the “circulating HSPC numbers” value (HSPCs [1]; [5]) was “significantly boosted circulating numbers of HSPCs and CFU-Fs as compared to that observed with isoproterenol and AMD3100 in combination” and the “dose dependence of HSPC mobilization in response to the CXCR4 antagonist” value (HSPCs [2]) was “dose response relationship”. For the same compound, the “pre-treatment time needed for CFU-F mobilization” value (CFU-Fs (MSPCs); [4]) was “required the pre-treatment of mice over 4 days to see this effect”, the “dose dependence of CFU-F mobilization in response to the CXCR4 antagonist” value (CFU-Fs (MSPCs); mouse, in vivo) was “dose response relationship” and the “circulating CFU-Fs” value (CFU-Fs (MSPCs); [5]) was “significantly boosted circulating numbers of HSPCs and CFU-Fs as compared to that observed with isoproterenol and AMD3100 in combination”. For the same compound, the “bone marrow levels of 2-AG” value [3, 6] was “significantly increased”, the “bone marrow levels of DHEA” value [3, 6] was “significantly increased” and the “bone marrow levels of PEA” value [3, 6] was “significantly increased”. For the same compound, the “bone marrow levels of other N-acyl ethanolamides, including AEA” value ([3]; following administration in vivo) was “remained unchanged” and the “MSC egress from the bone marrow in response to infusion of the CXCR4 antagonist” value (CFU-Fs (MSCs)) was “significantly enhanced both HPC and MSC egress from the bone marrow”.
